According to ChEMBL document CHEMBL1159000, “Anti-AIDS agents, 4. Tripterifordin, a novel anti-HIV principle from Tripterygium wilfordii: isolation and structural elucidation” (J Nat Prod, 1992):
In brackets after ≈: the same amount, converted by molar mass.

What was measured:
[1] = test system: Human immunodeficiency virus 1; test: Antiviral activity against HIV1 3B replication in human H9 cells after 1 hr by p24 antigen capture assay; type: functional, organism-based; details: Human immunodeficiency virus 1, 3B, H9, 1 h
H9 = test: Inhibition human H9 cell growth assessed as cell density at 15 uM after 3 days by cell count assay; type: cell-based; details: h9, 72 h

EC50 [1]: 1 µg/mL (≈ 3.14 µM)
SMILES: C[C@@]1(O)C[C@@]23CC[C@H]4[C@@]5(CCC[C@]4(C)C(=O)OC5)[C@@H]2CC[C@H]1C3 [TRIPTERIFORDIN]
Activity (H9): Non-toxic
